The values that follow come from PubChem BioAssay AID1391 (Sanford-Burnham Center for Chemical Genomics, 2008).

This assay deals with CSM14.1 cells, thapsigargin-induced p-p38/p38 MSD ELISA. Nature of the assay: p-p38/p38 ratio reduction under ER stress – MSD ELISA, CSM14.1 cells, thapsigargin, mechanism study for ER stress apoptosis inhibitor project, dose response (AID 1391). The following applies: at 10 µM (top of the series).

`COc1ccc(C2CC(=O)C3=C(C2)Nc2ccccc2NC3c2cccc(Oc3ccccc3)c2)cc1OC` (configuration not stated): the p-p38/p38 ratio, lower = inhibition was 1.86.
With `CC1(C)CC(=O)C2=C(C1)Nc1ccccc1NC2c1ccc(-c2ccccc2)cc1` (configuration not stated), the p-p38/p38 ratio, lower = inhibition was 1.47.
